In patent US7425635B2, “Prodrugs and conjugates of thiol- and selenol-containing compounds and methods of use thereof” (University of Utah Research Foundation, priority 1997, dated 2008):
Read-outs that look alike come from different tables or passages of the source. Marks after values point to notes of the source that are not given here.

Experiments:
E. coli AB1157 [1] = test: Toxicity in E. coli AB1157 (colony forming ability); format: cell-based
Procedure: (§1) A well characterized bacterial system was used as an initial screen for radioprotective activity of the novel compounds. A single colony of the bacteria, growing on a plate of LB medium (10 g tryptone, 5 g yeast extract, plus 5 g NaCl in 1 L water), was inoculated into 2 mL LB and incubated overnight. 20 mL LB medium were then inoculated with 600 μL of the overnight culture, and incubated with shaking at 37° C., 250 rpm. The cells were collected and washed with phosphate buffered saline. At this point the bacteria could be irradiated, treated with drug, etc., as outlined below. After dilution of the treated cells to 100 cells per 100 μL, they are plated out and incubated overnight. Cell viability is then measured by colony forming ability.
The toxicity of the compounds of interest in this system was explored.

E. coli AB1157 [2] = test: Radioprotection in E. coli AB1157; format: cell-based; details: E. coli AB1157, agent 1 hour before irradiation at 0.6 kGy
Procedure: Radioprotection in E. coli AB1157
as §1
Growth curves were generated for the bacteria in the absence of any treatment to provide experience with basic handling as well as important baseline information. The radiation dose response of the system was investigated irradiating bacterial cultures in a Shepherd Mark I ^137Cs irradiator over a dose range of 0 to 1 kGy. The dose-response curves are linear and reproducible from day to day.
Radioprotection experiments were also conducted in the bacterial system. […] Surviving fraction compared to that seen in control (untreated) cells, which were not irradiated, was then calculated.

Gst-mu = test: Northern blot of liver Gst-mu mRNA after ip dosing; format: in vivo, mice; details: 1 dose ip, 1.25 mg Se/kg, liver RNA 24 hours after dosing, mean ± SEM
Procedure: (§2) Linking efficacy to biochemical parameters and a mechanism was limited in the initial study by only two parameters, [Se] and GPx activity. The in-vivo effects of selenazolidine compounds were then evaluated using, in addition to GPx, glutathione S-transferases (GSTs), quinone oxidoreductases (NQORs), UDP-glucuronosyltransferases (UGTs), and microsomal epoxide hydrolase (mEH). To investigate transcriptional changes of these classes of enzymes, it was necessary to develop a battery of cDNA probes for use in Northern blot analysis of RNA extracted from treated animals (Table 2).
(§3) Whether the selenaproline compounds had the ability to up-regulate the transcription of Phase II and/or other “protective” enzymes was first evaluated following a single dose of each (Table 3). […] The experiment was repeated but with a 7-day treatment regimen (Table 4), the time period for which the compounds were given in the diet before NNK administration in the tumor experiment reported in Table 1. […] With multiple doses, SCA induced Ugt1a9, an mRNA that was not changed with a single dose. […] The elevation in the Gst-mu transcript was unique to multiple OSCA treatment. The elevation of the GST-alpha mRNA was also seen with SCA treatment. Microsomal epoxide hydrolase mRNA was robustly elevated by multiple doses of all three selenaproline compounds, an effect not anticipated from the single dose experiment where not even minor changes were apparent.

GST = test: Hepatic cytosolic GST (CDNB) activity after 7 daily ip doses; format: in vivo, mice; details: 7 daily doses ip, hepatic cytosol; naive 5248 ± 503
[3] = Body weight gain and liver weight in four-month feeding study; format: in vivo; details: mice, diet 15 ppm Se, NNK
Procedure: (§4) Where indicated, mice (16 g) were given diets fortified with SCA, MSCA or OSCA (15 ppm Se) for 1 week prior to NNK (10 umol, ip). Two other groups received the unmodified AIN-76A diet, with and without NNK administration. All groups were maintained on their pretreatment diet until the animals were sacrificed after 16 weeks. Liver GPx activity is expressed as μmol NADPH oxidized [in regenerating GSH]/min/mg 10,000 g×20 min supernatant protein; RBC activity as μmol/min/mg RBC lysate hemoglobin.

GPx [4] = test: Northern blot of liver GPx mRNA after ip dosing; format: in vivo, mice; details: 1.25 mg Se/kg, mean ± SEM
Procedure: as §2, §3

GPx [5] = test: Hepatic and RBC (tButylOOH) GPx activity in four-month feeding study; format: in vivo; details: mice, diet 15 ppm Se, NNK
Procedure: Three novel selenazolidines, 2-methyl-, 2-oxo- and 2-unsubstituted (i.e., selenaproline) selenazolidine-4[R]-carboxylic acid (MSCA, OSCA, and SCA respectively) that had been synthesized as prodrugs of selenocysteine were evaluated for their potential to act as cancer chemopreventive agents. [Se] and GPx activity were evaluated.
as §4

Gst-alpha = test: Northern blot of liver Gst-alpha mRNA after ip dosing; format: in vivo, mice; details: 1 dose ip, 1.25 mg Se/kg, liver RNA 24 hours after dosing, mean ± SEM
Procedure: as §2, §3

GPx [6] = test: Hepatic cytosolic GPx (H202) activity after 7 daily ip doses; format: in vivo, mice; details: 7 daily doses ip, hepatic cytosol; naive 894 ± 36
mEH = test: Northern blot of liver mEH mRNA after ip dosing; format: in vivo, mice; details: 1.25 mg Se/kg, mean ± SEM
Procedure: as §2, §3

[7] = E. coli AB1157, cell viability by colony forming ability
[8] = 1 dose ip, liver RNA 24 hours after dosing
[9] = 7 daily doses ip, liver RNA 24 hours after the last dose

Q: For O=C1NCCS1 [2-oxocysteamine prodrug, 2-Thiazolidinone], which “Toxicity in the bacterial system” value (E. coli AB1157 [1]; [7]) is on record?
A: completely eliminated the profound toxicity observed with cysteamine itself

Q: For NC1CCSC1=O (centres unmarked) [HCTL, homocysteine thiolactone], which “Radioprotection (surviving fraction)” value (E. coli AB1157 [2]) is on record?
A: greatest amount of protection

Q: Which results are given for O=C1N[C@H](C(=O)O)C[Se]1 [OSCA, 2-Oxoselenazolidine-4(R)-carboxylic acid]?
A: Gst-mu mRNA (Gst-mu): 1.38 ± 0.33 fold change from naive; GST (CDNB) activity (GST): 6887 ± 1142 nmol/mg cytosol (100,000 g supernatant) protein/min; Body wt gain (%) [3]: 39.9* %; Liver weight [3]: 1.02 ± 0.02 g; GPx (1.5 kb) mRNA (GPx [4]; [8]): 0.80 ± 0.22 fold change from naive; GPx mRNA (GPx [4]; [9]): 1.13 ± 0.39 fold change from naive; RBC (tButylOOH) GPx (GPx [5]; RBC): 281 ± 24 μmol/min/mg RBC lysate hemoglobin; Hepatic (tButylOOH) GPx (GPx [5]; liver): 518 ± 59 μmol NADPH oxidized/min/mg 10,; Gst-alpha mRNA (Gst-alpha): 1.61 ± 0.53 fold change from naive; GPx (H202) activity (GPx [6]): 880 ± 72 nmol/mg cytosol (100,000 g supernatant) protein/min; mEH mRNA (mEH; [8]): 0.88 ± 0.19 fold change from naive; mEH mRNA (mEH; [9]): 2.91 ± 1.48 fold change from naive

Q: With NCCCNCCS [WR-1065, reference compound] as the compound, how does the “Toxicity in the bacterial system” value (E. coli AB1157 [1]; [7]) read?
A: neither WR-1065 nor its 2-oxo prodrug produced any toxicity

Q: What about the “Radioprotection (surviving fraction)” value (E. coli AB1157 [2]) of the same compound?
A: greatest amount of protection

Q: With NCCS [cysteamine, reference compound] as the compound, how does the “Toxicity in the bacterial system” value (E. coli AB1157 [1]) read?
A: profound toxicity
